Data reported in patent publication US8198317B2, “Methylenedioxy phenolic compounds and their use to treat disease” (The Ohio State University Research Foundation, priority 2008, dated 2012).

Tests used:
Humans [1] = experiment: Treatment of established atherosclerosis in humans (Example 21); type: in vivo, human; conditions: oral, in excess of 12 months
From the text: Individuals with established atherosclerosis with evidence of plaque in the coronary arteries, carotid arteries or peripheral arteries are known to be at risk for future cardiovascular events such as heart attacks and strokes. These individuals are on treatments such as statins and anti-hypertensive agents such as ACE inhibitors, diuretics or calcium channel blockers. They also will receive an acceptable dose of a composition comprising a compound of the present invention in an acceptable carrier orally and chronically for durations in excess of 12 months. In one study, 3,4-methylenedioxy phenyl acetate (INV 73); 3,4-methylenedioxy-6-nitrophenol (INV 74); 3,4-methylenedioxy-6-nitrophenyl acetate (INV 75); 3,4-Methylenedioxy 6-nitro phenyl lipoate (INV-7465) or 3,4-Methylenedioxy phenyl lipoate (INV-7065) are administered to these individuals. A repeat IVUS measurement is made at the end of the treatment period to assess the effect of the infusion of the composition on coronary atherosclerosis in the target vessel.

Patients [2] = experiment: Treatment of dyslipidemia in diabetic patients (Example 25); type: in vivo, human; conditions: oral, 12 months
From the text: Individuals with Type I and Type II diabetes are at risk for future cardiovascular events such as heart attacks, strokes and kidney disease. These individuals often have abnormalities in lipids such as elevations in triglycerides and VLDL cholesterol. They are on treatments such as hypolipidemic drug therapy such as statins and fibrates (Gemfibrozil or Fenofibrate) to lover cholesterol levels in conjunction with glycemia lowering strategies such as Insulin, PPAR γ agents, Metformin or sulfonylurea therapy. In addition to these treatments they will also receive an acceptable dose of a composition comprising a compound of the present invention in an acceptable carrier orally chronically for durations in excess of 12 months. In one study, (3,4-methylenedioxy phenyl acetate (INV 73); 3,4-methylenedioxy-6-nitrophenol (INV 74); 3,4-methylenedioxy-6-nitrophenyl acetate (INV 75); are administered to these individuals. The patients undergo lipid measurements at baseline and at the end of treatment for a 12 month duration. At the end of 12 months of treatment, there is lowering of VLDL cholesterol and a decrease in triglycerides.

[3] = tested on: Human Umbilical Vein Endothelial Cells (HUVECs); experiment: MTT cell toxicity assay; type: cell-based; conditions: HUVEC, dose range of 10 nM to 100 μM
Procedure: Cell Culture: All experiments were performed with cultured Human Umbilical Vein Endothelial Cells (HUVECs—Gibco, Invitrogen) and grown to confluence at 37° C. in a 5% CO2 humidified incubator, on tissue culture flasks previously coated with 1% gelatin in supplemented culture medium (M199 with 10% heat inactivated fetal calf serum, 100 U/ml penicillin, 100 μg/ml streptomycin, 2 mM glutamine, 10 mM HEPES, pH 7.4, heparin 12 I.U./ml, 1% retinal derived growth factor, Sigma). Following trypsin treatment, the cells were detached from the flasks and final mono-layers were prepared by seeding HUVECs on gelatin-precoated culture plates and then incubated for 24-48 h to ensure confluence. Cells up to the fourth passage were used for all experiments. Recombinant human TNF-α was purchased from R&D Systems (Minneapolis, Minn.).
Cell Toxicity Assays: Cellular toxicity was assessed by MTT [3-(4,5-dimethylthiazol-2-yl)-2,5-diphenyltetrazolium bromide] assay, a commercially available assay for assessment of cellular viability. INV-75 was added to HUVECs for 24 hours, and toxicity assays were performed at the end of this period. The MTT assay relies on the cellular reduction of positively charged tetrazolium salts to their intensely colored formazan product by mitochondrial dehydrogenases. Formazan production is decreased in the presence of impaired mitochondrial redox function and enhanced free radical production and may, therefore, be used as an index of cell viability responses to experimental interventions.
In short, after removing microtiter plates from the incubator, fresh medium containing a fixed volume of reconstituted MTT [3-(4,5-dimethylthiazol-2-yl)-2,5-diphenyltetrazlium bromide; final concentration: 0.5 mg/ml] was added to the wells; the plates were kept at 37° C. in a 5% CO2 environment for 2 h, and then the MTT solubilization solution provided by the manufacturer was added. The formazan product formed by the conversion of positively charged tetrazolium salts to the reduced state has low aqueous solubility and is present as purple crystals. Dissolving the formazan with a solubilization buffer (provided in kit) permits the convenient quantification of its formation. Optical density at OD 570 nm is then measured for each well on an absorbance plate reader. The within- and between-assay variability was 3 and 5%, respectively. Various concentrations of INV-75 was tested in cell based assays using the MTT assay, as described above. The concentrations tested ranged from 1 mM to 10 nM and the cells were exposed for over 24 hours in duration (FIG. 2).

Humans [4] = experiment: Treatment of atherosclerosis in humans, primary prevention (Example 22); type: in vivo, human; conditions: oral, in excess of 12 months
From the text: Individuals with risk factors for atherosclerosis such as family history, hypertension and high cholesterol are known to be at risk for future cardiovascular events such as heart attacks and strokes. These individuals are on primary prevention treatments such as hypolipidemic drug therapy such as statins aspirin and anti-hypertensive agents such as ACE inhibitors, diuretics or calcium channel blockers. They also will receive an acceptable dose of a composition comprising a compound of the present invention in an acceptable carrier orally chronically for durations in excess of 12 months. In one study, 3,4-methylenedioxy phenyl acetate (INV 73); 3,4-methylenedioxy-6-nitrophenol (INV 74); 3,4-methylenedioxy-6-nitrophenyl acetate (INV 75); 3,4-Methylenedioxy 6-nitro phenyl lipoate (INV-7465) or 3,4-Methylenedioxy phenyl lipoate (INV-7065) are administered to these individuals. A repeat IVUS measurement is made at the end of the treatment period to assess the effect of the infusion of the composition on coronary atherosclerosis in the target vessel.

Humans [5] = experiment: Prevention or delay of onset of atherosclerosis in humans (Example 23); type: in vivo, human; conditions: 2 mg/kg to 50 mg/kg iv or im, one to six months
Procedure: Individuals with documented risk factors for atherosclerosis and having high plasma cholesterol levels have a ultrasound analysis of the coronary (IVUS), carotid (IMT) or popliteal arteries to establish a baseline measurement. A portion of these individuals are […] administered a composition comprising a compound of the present invention in an acceptable carrier at a dose of 2 mg/kg to 50 mg/kg intravenously (iv) or intramuscular (im) I to 3 times per week over a period of approximately one to six months. The following compounds are administered to these individuals: 3,4-methylenedioxy phenyl acetate (INV 73); 3,4-methylenedioxy-6-nitrophenol (INV 74); 3,4-methylenedioxy-6-nitrophenyl acetate (INV 75); 3,4-Methylenedioxy 6-nitro phenyl lipoate (INV-7465) or 3,4-Methylenedioxy phenyl lipoate (INV-7065). The other individuals receive the carrier alone. A new ultrasound analysis at the end of the treatment period indicates higher levels of plaque in the vessels of individuals receiving the carrier.

Patients [6] = experiment: Treatment of patients with Type I and Type II diabetes (Example 24); type: in vivo, human; conditions: diabetic patients, oral, 12 months
From the text: Individuals with Type I and Type II diabetes are at risk for future cardiovascular events such as heart attacks, strokes and kidney disease. These individuals are on prevention treatments such as hypolipidemic drug therapy such as statins and anti-hypertensive agents such as ACE inhibitors. They are already receiving glycemia lowering strategies such as Insulin, PPARγ agents, Metformin or sulfonylurea therapy. They also will receive an acceptable dose of a composition comprising a compound of the present invention in an acceptable carrier orally chronically for durations in excess of 12 months. In one study, 3,4-Methylenedioxy 6-nitro phenyl lipoate (INV-7465) or 3,4-Methylenedioxy phenyl lipoate (INV-7065) are administered to these individuals. The patients undergo the following measurements: HbA1C to assess glycemic control, urinary microalbuminura, blood pressure and lipid measurements. At the end of 12 months of treatment, there is lowering of HbA1C and urinary microalbuminuria. There is an improvement in VLDL cholesterol and a decrease in triglycerides with any of these treatments [(3,4-methylenedioxy phenyl acetate (INV 73); 3,4-methylenedioxy-6-nitrophenol (INV 74); 3,4-methylenedioxy-6-nitrophenyl acetate (INV 75); 3,4-Methylenedioxy 6-nitro phenyl lipoate (INV-7465) or 3,4-Methylenedioxy phenyl lipoate (INV-7065)].

Structure (SMILES) | plaque in the atherosclerotic coronary artery (IVUS) (Humans [1]) | VLDL cholesterol (Patients [2]) | triglycerides (Patients [2]) | cell toxicity results compared with those of INV-75 [3] | plaque in the atherosclerotic coronary artery (IVUS) (Humans [4]) | preventing or reducing atherosclerosis (ultrasound, versus carrier alone) (Humans [5]) | VLDL cholesterol (Patients [6]) | triglycerides (Patients [6])
CC(=O)Oc1ccc2c(c1)OCO2 [INV-73, 3,4-Methylenedioxyphenyl acetate] | reduced | lowering | decrease | identical | reduced | effective | improvement | decrease
O=[N+]([O-])c1cc2c(cc1O)OCO2 [INV-74, 3,4-Methylenedioxy-6-nitrophenol] | reduced | lowering | decrease | identical | reduced | effective | improvement | decrease
